The text below walks through data of a melting point compilation (Tetko et al.; mined from patent text by program, amines drawn as free bases though some values may be those of a salt).

Residues, ends and D or L forms follow the SMILES beside them. *: point of attachment. Cbz = O=C(OCc1ccccc1)*; tBu = CC(C)(C)* Bounds are passed on as bounds.

`CCC1(CC)CCNC1=O`: the melting point was 52 to 53 °C.

For `CC(=O)OCC(=O)Nc1cccc(-c2nnc(C(c3ccc(Cl)cc3)c3c(Cl)ccc(-n4ncc(=O)[nH]c4=O)c3Cl)o2)c1C` (stereo not given), the melting point came out at 206 °C.

Turning to `O=C(O)CCOCCc1cccc(-c2nc(=O)c3ccccc3s2)n1`, the melting point was found to be 237 °C.

Molecule `O=C1COc2ccc(Br)cc2N1O` came in with a melting point of 201 to 204 °C.

As for `COc1ccc(CN2CCSC2=O)cc1`, the melting point was in the range of 84 to 86 °C.

In turn, `Cc1nnc(-c2cc(Cl)c(Cl)c(Cl)n2)s1` showed a melting point of 148 to 150 °C.

In the case of `C[C@@H](N)CNc1ccnc2cc(Cl)ccc12`, the melting point amounted to 145 °C.

`CCCN1CCc2cc(NC(=O)C(=O)N[C@H]3CCOC3O)ccc21` (stereo not given in full) yielded a melting point of 120 to 122 °C.

The molecule `COc1c(C=O)ccc2c1oc1ccccc12` yielded a melting point of 178 to 180 °C.

On to `CCCCN(CCCC)C(=O)/C=C/c1ccc(Cn2c(-c3ccc(O)cc3)c(C)c3cc(O)ccc32)cc1`, for which the melting point is 126 to 128 °C.

`O=C1c2ccccc2CCC1n1cncn1` (stereo not given) had a melting point of 96 to 98 °C.

Molecule `Cc1cc(C#N)c(Cl)nc1C` yielded a melting point of 83 to 87 °C.

The molecule `Cc1nn(CC(F)(F)F)c(C(N)=O)c1[N+](=O)[O-]` yielded a melting point of 205 to 207 °C.

In turn, `CS(=O)(=O)Nc1cc(C(c2cc(F)ccc2F)S(=O)(=O)c2ccc(F)cc2)c(Cl)cn1` (stereo not given) gave a melting point of 178 to 179 °C.

`CC(C)(CCCSCSCCCC(C)(C)C(=O)O)C(=O)O` returned a melting point of 72 to 72.5 °C.

For the molecule `CO[C@@H]1CN(Cc2ccccc2)C[C@H]1NC(=O)OC(C)(C)C`, the melting point was 44 to 45 °C.

`Cc1cccc(-c2[nH]c(C(C)C)nc2-c2ccc(F)c(-c3ccc(S(C)(=O)=O)nc3)c2)n1` came in with a melting point of 102 to 105 °C.

In turn, `Cc1ncc([N+](=O)[O-])n1CCN=[N+]=[N-]` returned a melting point of 51 to 51.5 °C.

For `O=C(CCC(C(=O)O)N1C(=O)c2ccccc2C1=O)OCc1ccccc1` (stereo not given), the melting point was in the range of 96 to 98 °C.

Turning to `COc1cc2nc(-c3n[nH]cc3NC(=O)C3CC3)[nH]c2cc1Cl`, the melting point is 225 to 226 °C.

Molecule `NC1=NC(c2ccncc2)(c2cccc(-c3cccnc3F)c2)C2=NCCCN12` (stereo not given) returned a melting point of 125 to 131 °C.

For the molecule `OCCCn1c(S)nc2ccccc21`, the melting point came out at 110 °C.

On to `CCOCc1nc2cnc3cc(Br)cnc3c2n1CC(C)(C)F`, for which the melting point lay within 127 to 128 °C.

The molecule `O=C(Nc1nccs1)c1cccc(-c2ccc3c(c2)C(Oc2ccc(Cl)cc2Cl)CC3)c1` (stereo not given) showed a melting point of 180 to 181 °C.

In the case of `COc1ccc(C(=O)Nc2ccccc2)cc1NCc1cccc(C(F)(F)F)c1`, the melting point fell in the range of 167 to 171 °C.

Molecule `COc1cc(OCC(=O)O)c(C)cc1SCc1ccc(-c2ccc(C(F)(F)F)cc2)cc1` returned a melting point of 170 to 171 °C.

`O=Cc1csc(Nc2ccc(F)cc2)n1` gave a melting point of 152 to 155 °C.

Turning to `CC1(c2ccccc2)CCC(=O)CC1`, the melting point lay in the range of 48 to 50 °C.

`N#Cc1cn(CCl)cc1-c1ccccc1Cl` returned a melting point of 97 to 99 °C.

`COC(=O)C(C)N(C(=O)CO)c1c(C)csc1C` (stereo not given) displayed a melting point of 69 to 70 °C.

As for `CCOC(=O)[C@H]1O[C@@H]1C(=O)N[C@H](CNC(=O)c1ccccc1)CC(C)C`, the melting point was in the range of 126 to 129 °C.

For `Cn1ccc2c(NC(=O)c3ccccc3)cccc21`, the melting point was 160 °C.

Take `CCc1c(S(=O)(=O)c2ccc(=O)[nH]n2)oc2ccc(Cl)cc12`: the melting point was 209 to 210 °C.

Consider `O=C(O)C1CCC(c2cc3cccnc3c(=O)[nH]2)CC1` (stereo not given), for which the melting point was more than 270 °C.

`COC(=O)Cc1ccc(C(=O)O)cc1` registered a melting point of 134 to 136 °C.

The molecule `CC(C)=CCOc1ccc(C(=O)C=Cc2cccnc2)c(O)c1` showed a melting point of 177 to 179 °C.

Turning to `C#CCOc1cc(-n2c(Cl)c(C#N)n(CCC)c2=O)c(F)cc1Cl`, the melting point is 122 °C.

For the molecule `Cc1ccc2c(c1)C(c1ccncc1)CC2(O)c1ccc(F)cc1` (stereo not given), the melting point was in the range of 187 to 192 °C.

`CCCCCCn1c(C)c(C(=O)N(CCCC)CCCC)c2c(CN3CCCCC3)c(O)c(C(=O)CC)cc21` yielded a melting point of 124 to 125 °C.

With `Nc1ccccc1Oc1ccccc1Cl`, the melting point lay within 44 to 45 °C.

Regarding `COC(=O)c1c(C(=O)OC)c(-c2ccc(Cl)cc2)n2c1Cc1ccccc1C2`, the melting point is 164 to 166 °C.

Molecule `CCOC(=O)N1CCc2c(sc3nc(-c4ccc(Cl)cc4)cn23)C1` registered a melting point of 156 to 159 °C.

For `COC(=O)C(Cc1ccccc1)NC(=O)C(Cc1ccc(OC(C)(C)C)cc1)NC(=O)OCc1ccccc1` (stereo not given) (Cbz-Tyr(tBu)-Phe-OMe; configuration not given here), the melting point lay in the range of 106 to 107 °C.

`NCCN1CCC(Nc2nc3ccccc3n2Cc2ccc(CO)o2)CC1` registered a melting point of 165 °C.

With `CC(C)N[C@@H](Cc1ccccc1)C(=O)N1CCN(C(c2ccc(F)cc2)c2ccc(F)cc2)CC1`, the melting point is 45 to 58 °C.

For `COc1ccc(C(=O)Cc2ccccc2)c(Cl)c1Cl`, the melting point fell in the range of 125 to 127 °C.

The molecule `CCC(=O)NCC[C@@H]1CCc2cc(O)c3c(c21)CCO3` had a melting point of 149 to 152 °C.

With `COc1ccc(OC)n2nc(N)nc12`, the melting point lay within 223 to 234 °C.

In the case of `CC(C)(C)C=C[C@H](O)c1ccc(C(F)(F)F)cc1`, the melting point was in the range of 30 to 32 °C.

On to `O=c1oc2cc(Oc3nnnn3-c3ccccc3)ccc2c2c1CN(Cc1ccccc1)CC2`, for which the melting point was 165 to 166 °C.

Molecule `COc1cc(N)c(Cl)cc1C(=O)NC1CCN(CC2CCN(C(N)=O)CC2)CC1` had a melting point of 222 to 224 °C.

Take `CCn1c(C)nc2nc(-c3ccccc3)c(-c3ccccc3)nc21`: the melting point fell in the range of 178 to 180 °C.

`FCc1cc(-c2nnc3c4ccccc4c(OCc4nc[nH]n4)nn23)no1` showed a melting point of 266 to 268 °C.

As to `CCCCCCCCN(Cc1ccc(CN(CCCCCCCC)OC(=O)c2ccccc2)cc1)OC(=O)c1ccccc1`, the melting point is 80 to 81 °C.

`CN(CCOc1cccc2ccn(C(=O)OC(C)(C)C)c12)C(=O)OC(C)(C)C` yielded a melting point of 74 to 76 °C.

The molecule `COc1cc2c(c(OC)c1)C(Cc1ccc(-c3ccccc3OC)cc1)N(C(=O)OC(C)(C)C)CC2` (stereo not given) returned a melting point of 126 to 128 °C.

With `O=C(Nc1ccc(S(=O)(=O)c2ncccn2)cc1)C(O)(C(F)F)C(F)F`, the melting point is 209 to 210 °C.

Consider `COc1ccc(C=C2SCCS2)cc1OC`, for which the melting point lay within 74 to 75 °C.

As for `CS(=O)(=O)c1ccc(-c2cc(C(F)(F)F)nn2-c2ccc(C#N)cc2)cc1F`, the melting point lay within 152 to 153 °C.

The molecule `O=c1ccc(-c2c(-c3ccccc3)nn3ccccc23)nn1C1CCC2(CC1)OCCO2` showed a melting point of 189 to 190 °C.

On to `Nc1cc(O)nc(SCc2c(F)cccc2F)n1`, for which the melting point was 245 to 246 °C.

For `Cc1cc(O)cc(-c2nn(CC#N)cc2-c2cc(NC[C@H](C)O)nc(-c3cccnc3)n2)c1`, the melting point stood at 236 °C.

As for `CCCCCCCCCCC(O)CNCCNCC(O)CCCCCCCCCC` (stereo not given), the melting point is 137 to 142 °C.

As for `CCC(=O)N1N=C(c2ccc(N)c(C)c2)c2cc(Cl)ccc2C=C1C`, the melting point fell in the range of 218 to 221 °C.

In turn, `O=C(NCCCCCn1ccnc1)c1ccc(Cl)s1` gave a melting point of 123 to 125 °C.

Broadly, the melting point is the temperature, or range, at which the solid turns liquid.
